From article PMC11079024, “Identification of a family of species-selective complex I inhibitors as potential anthelmintics” (Nature Communications, 2024)
Several values for one entry are separate records, joined by “and”; a condition that tells them apart may be missing. Equal values may be shown once. Read-outs that look alike come from different tables or passages of the source.

What was measured:
[1] = system: adult H. polygyrus; test: microbe, parasite or virus in culture; format: cell-based, Heligmosomoides polygyrus; details: anaerobic, 24 hours after treatment; for Percent Worms Affected: adult H. polygyrus, affected = score equal to or lower than 1.5; for # of Worms Affected: worms with score equal to or lower than 1.5; for Worm viability score, individual worms (Worm1-Worm20): scale from 0 (dead) to 3 (motile)
Method: To investigate the impact of the eleven benzimidazole derivatives under anaerobic conditions, an anaerobic chamber with an integrated incubator (Coy Laboratory Products, USA) was used. The same procedure was followed as described for the aerobic drug screening in adult H. polygyrus, but the incubation took place within the anaerobic chamber (37 °C, 85% N2, 10% CO2, 5% H2). Benzimidazole derivatives were tested at a concentration of 10 µM. For scoring, the plates had to be removed from the anaerobic chamber. The whole experiment was performed two times i.e., two independent biological replicates.
The activities of eleven benzimidazole derivatives were tested against adult H. polygyrus viability in vitro under aerobic (+, white boxplots) and anaerobic (–, coloured boxplots) conditions (see Methods). After 24-hour chemical treatment, worm viability was manually scored by an examiner using a scale from 0 (dead) to 3 (motile); DMSO was used as a negative control in both aerobic and anaerobic conditions; levamisole was used as a positive control in anaerobic conditions. The percentage of affected worms (i.e., worms with a score equal to or lower than 1.5) in each biological replicate is shown; data are from two biological replicates. Within each boxplot, black horizontal lines denote group medians, boxes span from the 25th to the 75th percentile of each group’s distribution, and whiskers extend to the maximum and minimum values. […]

[2] = system: adult H. polygyrus; format: cell-based, Heligmosomoides polygyrus; details: for Worm viability score, individual worms (Worm1-Worm20): scale from 0 (dead) to 3 (motile)
Method: After either 24- or 72 h chemical treatment, worm viability was manually scored by an examiner using a scale from 0 (dead) to 3 (motile); DMSO was used as a negative control in both 24- and 72 h treatments. The percentage of affected worms (i.e., worms with a score equal to or lower than 1.5) in each biological replicate is shown; data are from two biological replicates. Within each boxplot, black horizontal lines denote group medians, boxes span from the 25th to the 75th percentile of each group’s distribution, and whiskers extend to the maximum and minimum values.
The eleven benzimidazole derivatives were tested at a concentration of 10 µM under aerobic conditions against L3 and adult H. polygyrus.
For the larval assay, mice feces were collected 2 weeks post-infection and eggs were isolated. The eggs were left on agar at room temperature in the dark for eight to 10 days to allow them to develop into L3. Next, 30–40 L3 were incubated (37 °C, 5% CO2) in the culture medium (RPMI 1640 medium + 1% pen./strep. + 5% amphotericin B) containing the derivatives in 96-well plate (Corning, USA) reaching a final volume of 250 µL for 24 h. For the adult drug screening assay, female NMRI mice were euthanized with CO2 and adult H. polygyrus were dissected out of the intestines. Subsequently, three worms were exposed to the culture medium (RPMI 1640 medium + 1% pen./strep. + 5% amphotericin B) with the derivatives (2 mL) in a 24-well plate (Corning, USA) for either 24 or 72 h. DMSO ( < 1%) served as a negative control in both assays. All conditions were tested in duplicates. Finally, 80 µL of hot water ( ~ 80 °C) for L3 and 500 µL of hot water (~80 °C) for adults were added to the wells to check for their viability under a microscope (Carl Zeiss, Germany). Larvae were categorized as being either alive or dead, depending on whether they moved or not. […] The whole experiment was performed two times i.e., two independent biological replicates for both life stages (L3s and adults) and exposure times (24 and 72 h).

[3] = system: C. elegans; test: C. elegans chemical screens of RIKEN NPD libraries at 50 μM (hit identification in KCN survival and development/viability assays); format: cell-based, Caenorhabditis elegans
[4] = system: L1 wild-type C. elegans
[5] = system: ben-1 mutant (ECA882) C. elegans; test: microbe, parasite or virus in culture; details: Caenorhabditis elegans
Method: Liquid development and viability assays were adapted from a previously established chemical screening protocol (Burns et al.)[24]. In brief, a saturated culture of E. coli HB101 was concentrated 2-fold in liquid NGM and 40 μL of this suspension was distributed to each well of a 96-well flat-bottom culture plate. 0.5 μL chemical solution (or DMSO alone) was added to each well (1% DMSO v/v) using either a multi-channel pipette or a pinning tool (V&P Scientific). L1 worms synchronized from an embryo preparation performed the day prior were diluted to a concentration of ~2 worms/μL in M9 buffer; 10 μL worm suspension was then added to each well. Culture plates were sealed with parafilm and placed in a plastic container lined with wet paper towels to prevent evaporation. Containers were then incubated for 6 days at 20 °C with shaking at 165 rpm. Following incubation, 300 μL M9 was added to each well to decrease the turbidity of the HB101-NGM suspension. Single images of each microplate well were then taken on a Nikon Ti Eclipse inverted microscope (Nikon NIS Elements AR). Images were processed using Python scripts to isolate worm-associated pixels from background. Scores of worm development and viability were determined as the sum of worm-associated pixels in each well. Development/viability scores for each well were divided by the development /viability scores for the corresponding DMSO controls, resulting in a relative viability value for each chemical. At least three biological replicates were performed for each dose-response experiment; relative viability values were averaged across replicates. […]
anthelmintics. a. Chemical structures of four commercial benzimidazole anthelmintics (e.g., albendazole, […]
Dose response of four commercial […]
elegans strains: N2, wild type; ECA882, deletion (ben-1); ECA917, F200Y (ben-1); ECA1075, F167Y (ben-1); ECA1080, E198A (ben-1); CB3474, G104D (ben-1). The colour-coded scale denotes the phenotypic outcome of drug treatment (e.g., motility or viability) relative to DMSO controls; white/pale- […]
death and arrested development. c. […]
benzimidazole anthelmintics (blue) were conducted in C. elegans development and viability assays for wild type (N2) and ben-1 mutant (ECA882) C. elegans (see Supplementary Date File 1).
All data used for generation of dose-response curves is the mean of at least three […]
Supplementary Figure 7 (continued). Davie et al.

[6] = target: B. taurus (heart) complex I (Bos taurus, UniProt P03887+P17694+P42026); test: biochemical; format: biochemical; details: for IC50: B. taurus heart mitochondria, read-out: B. taurus Complex I IC50; for Log IC50 B. taurus complex I: log10 of IC50 in µM, B. taurus mitochondria
Method: Six 8–10-week-old C57Bl/6 female mice (Charles River) were freshly dissected, and their livers and hearts collected into separate 1.5 mL microcentrifuge tubes. Organs were flash-frozen in liquid nitrogen and stored at −80 °C prior to use. The heart of a freshly slaughtered adult cow was obtained from a local abattoir (Peel Sausage Inc.), chopped into ~1-inch cubes and collected into 50 mL falcon tubes. Falcon tubes were flash-frozen in a container of dry ice and stored at −80 °C prior to use. Isolation of mitochondria from all mammalian tissue was carried out following the protocol described above. However, due to size, the initial homogenization of tissue was performed by 15 strokes in a dounce homogenizer (mouse heart) or with several 5 s pulses in small Nutribullet blender (cow heart). All mouse protocols for mouse care and dissection were reviewed and approved by the University of Toronto Animal Care Committee, in accordance with the Canadian Council on Animal Care.
The enzymatic activities of individual ETC complexes (I-IV) were assessed spectrophotometrically in isolated mitochondria using a Varioskan LUX Multimode plate reader (ThermoFisher Scientific). Mitochondrial pellets previously isolated were thawed on ice and resuspended in ice-cold isolation buffer (250 mM sucrose, 10 mM Tris (pH 7.5), 1 mM EDTA). The BCA assay (Walker, 1994) was used to quantify the protein concentration of mitochondria suspensions; solutions were diluted to a concentration of 0.2 mg/mL for use in all assays. For the complex I assay, mitochondria pellets were freeze-thawed on ice three times to increase enzyme accessibility. […] 20 μL mitochondria suspension was then added/mixed with a pipette to initiate the reaction. Immediately following the addition of mitochondria, absorbance was measured (complex I and II: 600 nm; complex III and IV: 550 nm) in 30 s intervals over 15 min. Enzymatic activity was determined in each reaction by plotting absorbance versus time and calculating the slope of the curve during the initial linear phase of the reaction. […] Percent activity of each complex was calculated by dividing the enzyme-specific activity of each well by the enzyme-specific activity of the corresponding solvent controls.
Chemical solutions were prepared in complex I assay buffer composed of 25 mM KPi buffer (pH 7.5), 3 mg/mL bovine serum albumin (BSA), 80 μM NADH, 60 μM decylubiquinone, 160 μM DCIP, 2 μM antimycin A and 2 mM KCN.
For preliminary screens of hit compounds, compounds were screened at 100 μM; data are the average of at least three biological replicates. The complex I and II activity assays were used for additional dose-response experiments. […] For dose responses of benzimidazole analogs, data represent the average of two biological replicates. For all other dose-responses, data represent the average of at least three biological replicates.

[7] = in vitro; details: human
[8] = system: L1 wild-type C. elegans; test: microbe, parasite or virus in culture; details: Caenorhabditis elegans, read-out: C. elegans KCN Survival Assay LC50, estimated from fitted dose-response curves; mean of at least two biological replicates
[9] = target: C. elegans (N2) complex I (NADH:ubiquinone oxidoreductase) (Caenorhabditis elegans, UniProt P24887+Q93873+Q94360); test: biochemical; format: biochemical; details: for Log IC50 C. elegans complex I: log10 of IC50 in µM, C. elegans mitochondria
Procedure, shortened: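 Compounds were tested against freeze-thawed isolated mitochondria (0.2 mg/mL protein). NADH:decylubiquinone activity was monitored via DCIP absorbance at 600 nm, and the initial linear slope was normalised to solvent controls.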

[10] = adult H. polygyrus, in vitro, aerobic, 24 hours, per biological replicate
[11] = adult H. polygyrus, in vitro, aerobic, 72 hours, per biological replicate
[12] = screened at 50 μM in triplicate, […], KCN = KCN survival assay, Dev. & Viability = development/viability assay
[13] = read-out: C. elegans (ben-1) Development & Viability Assay LC50
[14] = read-out: C. elegans ben-1 log10 LC50 (converted)
[15] = in vitro complex I dose response on C. elegans mitochondria, average of at least two biological replicates, fit in R (DRC), read-out: IC50 C. elegans complex I
[16] = wild-type C. elegans mitochondria, read-out: C. elegans Complex I IC50

Chain of B. taurus (heart) complex I (P03887 whole entry): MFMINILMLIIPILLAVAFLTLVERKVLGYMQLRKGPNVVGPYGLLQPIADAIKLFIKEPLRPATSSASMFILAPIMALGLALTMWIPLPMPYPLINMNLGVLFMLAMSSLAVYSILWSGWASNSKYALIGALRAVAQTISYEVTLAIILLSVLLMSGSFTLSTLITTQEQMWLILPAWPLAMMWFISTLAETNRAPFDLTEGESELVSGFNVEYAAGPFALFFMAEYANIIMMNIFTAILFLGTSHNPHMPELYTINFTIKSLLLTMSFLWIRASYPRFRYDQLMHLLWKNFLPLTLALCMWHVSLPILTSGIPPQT
Chain of B. taurus (heart) complex I (P17694 34-463): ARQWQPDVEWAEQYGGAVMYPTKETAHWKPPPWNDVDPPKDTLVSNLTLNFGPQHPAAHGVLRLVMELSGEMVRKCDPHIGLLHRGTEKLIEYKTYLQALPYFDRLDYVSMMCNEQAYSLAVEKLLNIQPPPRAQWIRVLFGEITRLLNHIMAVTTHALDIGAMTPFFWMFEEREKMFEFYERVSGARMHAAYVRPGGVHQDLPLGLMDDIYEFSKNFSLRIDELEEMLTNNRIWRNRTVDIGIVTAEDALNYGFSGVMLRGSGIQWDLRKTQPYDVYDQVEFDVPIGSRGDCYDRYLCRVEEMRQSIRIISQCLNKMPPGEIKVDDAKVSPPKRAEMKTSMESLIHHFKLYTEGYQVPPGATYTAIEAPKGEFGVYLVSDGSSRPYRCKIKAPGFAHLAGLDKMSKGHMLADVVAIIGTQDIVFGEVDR
Chain of B. taurus (heart) complex I (P42026 38-216): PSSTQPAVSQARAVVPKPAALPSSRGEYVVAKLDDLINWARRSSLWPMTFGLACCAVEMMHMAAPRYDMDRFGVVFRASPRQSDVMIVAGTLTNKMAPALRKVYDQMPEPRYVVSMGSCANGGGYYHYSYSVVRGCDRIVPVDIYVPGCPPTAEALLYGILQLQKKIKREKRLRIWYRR
Chain of C. elegans (N2) complex I (NADH:ubiquinone oxidoreductase) (Q94360 17-199): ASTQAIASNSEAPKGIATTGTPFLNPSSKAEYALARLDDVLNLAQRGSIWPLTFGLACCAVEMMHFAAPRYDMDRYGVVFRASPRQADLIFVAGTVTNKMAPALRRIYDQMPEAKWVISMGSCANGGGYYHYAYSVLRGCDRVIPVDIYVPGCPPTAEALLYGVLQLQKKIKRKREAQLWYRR
Chain of C. elegans (N2) complex I (NADH:ubiquinone oxidoreductase) (P24887 whole entry): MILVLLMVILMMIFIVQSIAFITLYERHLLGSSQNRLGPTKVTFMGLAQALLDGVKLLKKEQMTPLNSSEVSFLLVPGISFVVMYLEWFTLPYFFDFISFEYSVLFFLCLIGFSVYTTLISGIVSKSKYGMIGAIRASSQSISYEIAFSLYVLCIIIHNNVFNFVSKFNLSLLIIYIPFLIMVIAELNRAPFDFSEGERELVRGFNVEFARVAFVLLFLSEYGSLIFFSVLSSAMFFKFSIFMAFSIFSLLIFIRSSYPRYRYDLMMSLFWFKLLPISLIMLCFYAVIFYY
Chain of C. elegans (N2) complex I (NADH:ubiquinone oxidoreductase) (Q93873 31-482): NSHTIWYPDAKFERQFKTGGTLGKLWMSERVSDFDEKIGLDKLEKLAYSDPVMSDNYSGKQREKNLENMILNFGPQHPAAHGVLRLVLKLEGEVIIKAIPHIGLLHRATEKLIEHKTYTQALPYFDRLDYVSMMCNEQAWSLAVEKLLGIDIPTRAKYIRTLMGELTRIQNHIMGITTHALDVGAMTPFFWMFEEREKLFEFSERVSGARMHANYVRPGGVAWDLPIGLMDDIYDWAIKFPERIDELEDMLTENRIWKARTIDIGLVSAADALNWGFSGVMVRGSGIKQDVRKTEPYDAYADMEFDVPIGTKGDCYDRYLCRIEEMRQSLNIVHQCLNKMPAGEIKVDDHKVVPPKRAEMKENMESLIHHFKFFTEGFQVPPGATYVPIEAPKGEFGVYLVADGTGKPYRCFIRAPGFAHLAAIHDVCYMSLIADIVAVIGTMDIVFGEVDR

CC(C)Cc1ccc(C(C)c2nc3ccccc3n2C)cc1 (racemic) [NPD87890]
Percent Worms Affected ([1]; replicate 1): 100%
Percent Worms Affected ([1]; replicate 2): 100%
# of Worms Affected ([1]; replicate 1): 6
Worm viability score, individual worms (Worm1-Worm20) ([1]; replicate 1): 0.5 (3×) and 0 (2×) and 1
# of Worms Affected ([1]; replicate 2): 6
Worm viability score, individual worms (Worm1-Worm20) ([1]; replicate 2): 1.5 and 1 (5×)
Worm viability score of individual worm, scale from 0 (dead) to 3 (motile) [2]: 1 and 0.5
Percent Worms Affected ([2]; adult H. polygyrus, aerobic, replicate 1, 24 hours after treatment, affected = score equal to or lower than 1.5): 100%
# of Worms Affected [2, 10]: 3 and 6
Percent Worms Affected (worms with a score equal to or lower than 1.5) [2, 10]: 50% and 100%
Worm viability score of individual worm, scale from 0 (dead) to 3 (motile) ([2]; adult H. polygyrus, in vitro, aerobic, 24 hours, single worms): 2 (2×) and 2.5 and 1.5 and 1 and 1.25 (5×)
# of Worms Affected [2, 11]: 5 and 6
Percent Worms Affected (worms with a score equal to or lower than 1.5) [2, 11]: 83% and 100%
Worm viability score of individual worm, scale from 0 (dead) to 3 (motile) ([2]; adult H. polygyrus, in vitro, aerobic, 72 hours, single worms): 2 and 1.5 and 1 (2×) and 0.5 and 0.75 (3×)
# of Worms Affected ([2]; aerobic, replicate 1, 24 hours after treatment, worms with score equal to or lower than 1.5): 6
Worm viability score, individual worms (Worm1-Worm20) ([2]; aerobic, replicate 1, 24 hours after treatment): 1.25 (5×) and 1
# of Worms Affected ([2]; aerobic, replicate 2, 24 hours after treatment, worms with score equal to or lower than 1.5): 3
Worm viability score, individual worms (Worm1-Worm20) ([2]; aerobic, replicate 2, 24 hours after treatment): 2 (2×) and 2.5 and 1 (2×) and 1.5

COc1cccc2c1cc([N+](=O)[O-])c1c(C(=O)O)cc3c(c12)OCO3 [Aristolochic acid, reference compound]
Hit Type [3]: Dev. & Viability

CC[C@@]1(O)C(=O)OCc2c1cc1n(c2=O)Cc2cc3ccccc3nc2-1 [Camptothecin, reference compound]
Hit Type [3, 12]: Dev. & Viability

Nc1nc2ccccc2n1CCCOc1ccccc1 [Compound 7915320]
Hit ([4]; active or inactive at 50 μM in C. elegans assay of RQ-dependent metabolism): non
LC50 [5, 13]: 150 µM
LC50 [5, 14]: 150 µM
IC50 [6]: 15.6 µM
Log IC50 B. taurus complex I [6]: 1.19 µM
CC50 at 2 days ([7]; HEK293 Cell Viability Assay LC50, HEK293 cells, estimated from fitted dose-response curves): 60 µM
LC50 [8]: 23.7 µM
IC50 [9, 15]: 6.9 µM
Log IC50 C. elegans complex I [9]: 0.84 µM
IC50 [9, 16]: 6.9 µM

Cn1c(Cc2ccc(Cl)cc2)nc2ccccc21 [Compound 9005666]
Screen "Hit" ([4]; 50 μM compound, […], hit = relative motility below 0.25 3 hours after removal of KCN): Y (hits were identified as compounds that reduced relative motility below 0.25 (75% reduction))
LC50 [5, 13]: 193 µM
LC50 [5, 14]: 193 µM
IC50 [6]: 33.3 µM
Log IC50 B. taurus complex I [6]: 1.52 µM
CC50 at 2 days [7]: > 100 µM
LC50 [8]: 28.6 µM
IC50 [9, 15]: 8.27 µM
Log IC50 C. elegans complex I [9]: 0.92 µM
IC50 ([9]; wild-type (N2) mitochondria, read-out: C. elegans Complex I IC50): 8.27 µM
IC50 [9, 16]: 8.27 µM

COC(=O)Nc1nc2ccc(C(=O)c3cccs3)cc2[nH]1 [Nocodazole, reference compound]
Hit Type [3, 12]: Dev. & Viability
